Data from the supplement of paper PMC10307832.

Assays:
Assay in all cases: relative viability (nuclei count vs DMSO), 5 days (fraction); higher = more cells survive
[1] = compound: CS(=O)(=O)c1ccc(C(=O)Nc2ccc(Cl)c(-c3ccccn3)c2)c(Cl)c1 [Vismodegib] + Nc1nc2[nH]cc(CCc3ccc(C(=O)N[C@@H](CCC(=O)O)C(=O)O)cc3)c2c(=O)[nH]1 [Pemetrexed] (partner 0.2 µM)
How it was run: (§1)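 Relative viability is defined as nuclei in treated wells over nuclei in vehicle wells. Duplicate plates were run and medians reported. Lung cancer cell lines in 1536-well plates were dosed by pin tool one day after seeding, with one drug or with a fixed anchor-drug dose plus five library-drug doses (not always all listed) in √10 steps, and nuclei were counted after 5 days.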

[2] = compound: CS(=O)(=O)c1ccc(-c2cnc(N)c(C(=O)Nc3ccccc3)n2)cc1 [VE-821] + O=C(c1cc(Cc2n[nH]c(=O)c3ccccc23)ccc1F)N1CCN(C(=O)C2CC2)CC1 [Olaparib] (partner 8 µM)
How it was run: as §1

[3] = compound: CS(=O)(=O)c1ccc(C(=O)Nc2ccc(Cl)c(-c3ccccn3)c2)c(Cl)c1 [Vismodegib] + O=C(c1cc(Cc2n[nH]c(=O)c3ccccc23)ccc1F)N1CCN(C(=O)C2CC2)CC1 [Olaparib] (partner 8 µM)
How it was run: as §1

[4] = compound: CS(=O)(=O)c1ccc(C(=O)Nc2ccc(Cl)c(-c3ccccn3)c2)c(Cl)c1 [Vismodegib] + N=C(N)NC(=N)NCCc1ccccc1 [Phenformin] (partner 250 µM)
How it was run: as §1

Cell Line	relative viability ([1]; first compound 0.08 µM)	relative viability ([1]; first compound 0.253 µM)	relative viability ([1]; first compound 0.8 µM)	relative viability ([1]; first compound 8 µM)	relative viability ([2]; first compound 0.08 µM)	relative viability ([2]; first compound 0.253 µM)	relative viability ([2]; first compound 0.8 µM)	relative viability ([2]; first compound 2.53 µM)	relative viability ([2]; first compound 8 µM)	relative viability ([3]; first compound 0.08 µM)	relative viability ([3]; first compound 0.253 µM)	relative viability ([3]; first compound 0.8 µM)	relative viability ([3]; first compound 8 µM)	relative viability ([4]; first compound 0.08 µM)	relative viability ([4]; first compound 0.253 µM)	relative viability ([4]; first compound 0.8 µM)	relative viability ([4]; first compound 2.53 µM)	relative viability ([4]; first compound 8 µM)	relative viability ([1]; first compound 2.53 µM)	relative viability ([3]; first compound 2.53 µM)
SW 900	0.496	0.472	0.495	0.496	0.936	0.941	0.768	0.786	0.606	0.743	0.866	0.784	0.803	0.615	0.612	0.718	0.744	0.676		
NCI-H358	0.18	0.183	0.174	0.181	0.69	0.622	0.698	0.697	0.665	0.564	0.597	0.525	0.667	0.345	0.418	0.359	0.329	0.292	0.172	0.521
ChaGo-K-1	0.256	0.256	0.255	0.263	0.449	0.396	0.36	0.345	0.283	0.452	0.436	0.455	0.405	0.523	0.448	0.47	0.459	0.452	0.265	0.398
NCI-H1755	0.441	0.417	0.365	0.432	0.928	0.859	0.854	0.893	0.719	0.863	0.884	0.897	0.852	0.596	0.61	0.611	0.617	0.598	0.426	0.843
LCLC-103H	0.431	0.552	0.474	0.481	0.769	0.76	0.71	0.76	0.663	0.759	0.757	0.73	0.832	0.39	0.332	0.328	0.357	0.323	0.473	0.733
HCC-827	0.246	0.283	0.563	0.267	0.735	0.753	0.136	0.734	0.711	0.581	0.653	0.728	0.657	0.39	0.406	0.381	0.384	0.408	0.284	0.678
HCC-44	0.663	0.629	0.616	0.677	0.939	0.978	0.971	0.986	0.957	0.945	0.919	0.981	0.962	0.184	0.195	0.179	0.173	0.183	0.638	1.01
NCI-H727					0.725	0.694	0.765	0.682	0.66	0.66	0.683	0.76	0.749	0.52	0.58	0.592	0.524	0.444		0.724
NCI-H1563	0.458	0.806	0.767	0.839										0.622	0.623	0.676	0.721	0.626	0.762	
NCI-H1650	0.332	0.333	0.334	0.354	0.686	0.83	0.542	0.796	0.429	0.896	0.633	0.763	0.746	0.387	0.414	0.479	0.415	0.406	0.372	0.794
COR-L 105	1.03	1.16	1.08	1.16	0.708	0.638	0.434	0.561	0.484	0.605	0.64	0.69	0.537	0.498	0.441	0.516	0.506	0.495	1.03	0.698
COR-L23	0.195	0.19	0.184	0.207	0.372	0.346	0.221	0.304	0.182	0.35	0.339	0.337	0.317	0.441	0.423	0.43	0.453	0.493	0.195	0.281
NCI-H596	0.475	0.489	0.394	0.502	0.701	0.714	0.545	0.555	0.527	0.749	0.488	0.653	0.844	0.71	0.737	0.748	0.769	0.767	0.525	0.706
NCI-H322M	0.607	0.618	0.548	0.646	0.783	0.842	0.712	0.653	0.458	0.753	0.679	0.695	0.776	0.798	0.771	0.783	0.729	0.756	0.609	0.704
H3255	0.56	0.57	0.532	0.542	0.576	0.532	0.553	0.535	0.493	0.586	0.554	0.516	0.517	0.362	0.378	0.362	0.324	0.413	0.485	0.54
PC-14	0.148	0.135	0.133	0.136	0.292	0.282	0.167	0.137	0.097	0.262	0.175	0.254	0.254	0.658	0.444	0.567	0.512	0.602	0.144	0.248
A549					0.431	0.291	0.195	0.262	0.207	0.247	0.358	0.31	0.194	0.151	0.148	0.226	0.115	0.155		0.352
